Reference: ChEMBL document CHEMBL5226282, “TLR2 Agonistic Small Molecules: Detailed Structure-Activity Relationship, Applications, and Future Prospects” (J Med Chem, 2021)
pEC50, pIC50, pKi: −log10 of the molar value.

Key:
Toll-like receptor 1/2 = Toll-like receptor 1/2 (Homo sapiens, UniProt O60603+Q15399); test: Agonist activity at TLR2/TLR1 (unknown origin); type: protein-complex assay
Toll-like receptor 2 [1] = biological target: T1, Toll-like receptor 2 (Homo sapiens, UniProt O60603); test: Agonist activity at TLR2 (unknown origin)
Toll-like receptor 2 [2] = biological target: T1, Toll-like receptor 2; test: Binding affinity to TLR2 (unknown origin)
Toll-like receptor 2 [3] = biological target: T1, Toll-like receptor 2; test: Agonist activity at human TLR2 transfected in HEK293 cells relative to control; type: cell-based
Toll-like receptor 2 [4] = biological target: T1, Toll-like receptor 2; test: Agonist activity at human TLR2 transfected in HEK293 cells; type: cell-based
[5] = biological target: Toll-like receptor 2 (Mus musculus) (UniProt Q9QUN7); test: Agonist activity at mouse TLR2 transfected in HEK293 cells relative to control; type: cell-based; parameters: concentration or dose not given beside the values
Toll-like receptor 2 (Mus musculus), sequence (Q9QUN7 whole entry): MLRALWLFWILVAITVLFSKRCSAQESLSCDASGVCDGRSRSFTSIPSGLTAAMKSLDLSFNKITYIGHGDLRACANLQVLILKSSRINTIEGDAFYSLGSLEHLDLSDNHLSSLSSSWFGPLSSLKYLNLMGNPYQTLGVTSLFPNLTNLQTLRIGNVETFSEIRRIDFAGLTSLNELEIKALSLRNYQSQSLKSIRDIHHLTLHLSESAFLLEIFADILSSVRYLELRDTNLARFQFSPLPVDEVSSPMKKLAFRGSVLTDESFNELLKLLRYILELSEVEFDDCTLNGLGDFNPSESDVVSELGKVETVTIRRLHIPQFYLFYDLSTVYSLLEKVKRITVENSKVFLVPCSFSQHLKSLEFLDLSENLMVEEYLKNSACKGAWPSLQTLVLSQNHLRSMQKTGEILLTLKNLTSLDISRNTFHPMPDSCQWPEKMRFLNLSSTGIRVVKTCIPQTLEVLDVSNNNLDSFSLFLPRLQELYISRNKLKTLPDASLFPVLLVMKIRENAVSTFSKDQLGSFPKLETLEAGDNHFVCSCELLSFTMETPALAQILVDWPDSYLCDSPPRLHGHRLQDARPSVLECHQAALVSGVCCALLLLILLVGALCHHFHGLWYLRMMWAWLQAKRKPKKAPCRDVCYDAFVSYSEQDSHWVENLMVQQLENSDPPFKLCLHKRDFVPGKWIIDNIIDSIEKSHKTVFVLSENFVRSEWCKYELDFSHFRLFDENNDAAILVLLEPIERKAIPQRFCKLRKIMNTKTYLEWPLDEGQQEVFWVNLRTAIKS

T1 sequence (O60603 whole entry): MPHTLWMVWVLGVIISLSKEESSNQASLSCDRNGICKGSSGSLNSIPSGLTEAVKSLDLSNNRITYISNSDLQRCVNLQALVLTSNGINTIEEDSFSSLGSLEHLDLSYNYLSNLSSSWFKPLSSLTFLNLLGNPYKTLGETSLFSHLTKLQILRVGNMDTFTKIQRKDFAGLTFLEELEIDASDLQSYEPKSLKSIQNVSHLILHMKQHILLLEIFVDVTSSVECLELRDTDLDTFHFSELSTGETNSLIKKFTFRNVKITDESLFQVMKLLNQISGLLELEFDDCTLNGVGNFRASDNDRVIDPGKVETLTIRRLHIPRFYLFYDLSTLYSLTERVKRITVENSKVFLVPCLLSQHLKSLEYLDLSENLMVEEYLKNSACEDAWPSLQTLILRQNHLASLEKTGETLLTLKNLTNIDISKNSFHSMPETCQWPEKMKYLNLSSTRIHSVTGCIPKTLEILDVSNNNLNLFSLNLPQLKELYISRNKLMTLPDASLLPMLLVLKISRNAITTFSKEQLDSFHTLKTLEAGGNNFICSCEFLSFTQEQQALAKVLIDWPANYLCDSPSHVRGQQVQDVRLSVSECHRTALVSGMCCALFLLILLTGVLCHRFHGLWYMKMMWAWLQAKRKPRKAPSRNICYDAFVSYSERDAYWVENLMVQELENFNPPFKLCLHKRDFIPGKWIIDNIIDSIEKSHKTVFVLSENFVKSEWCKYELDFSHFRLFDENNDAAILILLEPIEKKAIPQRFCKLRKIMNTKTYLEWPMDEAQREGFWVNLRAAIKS
Toll-like receptor 1/2, sequence (O60603 whole entry): as above
Toll-like receptor 1/2, sequence (Q15399 whole entry): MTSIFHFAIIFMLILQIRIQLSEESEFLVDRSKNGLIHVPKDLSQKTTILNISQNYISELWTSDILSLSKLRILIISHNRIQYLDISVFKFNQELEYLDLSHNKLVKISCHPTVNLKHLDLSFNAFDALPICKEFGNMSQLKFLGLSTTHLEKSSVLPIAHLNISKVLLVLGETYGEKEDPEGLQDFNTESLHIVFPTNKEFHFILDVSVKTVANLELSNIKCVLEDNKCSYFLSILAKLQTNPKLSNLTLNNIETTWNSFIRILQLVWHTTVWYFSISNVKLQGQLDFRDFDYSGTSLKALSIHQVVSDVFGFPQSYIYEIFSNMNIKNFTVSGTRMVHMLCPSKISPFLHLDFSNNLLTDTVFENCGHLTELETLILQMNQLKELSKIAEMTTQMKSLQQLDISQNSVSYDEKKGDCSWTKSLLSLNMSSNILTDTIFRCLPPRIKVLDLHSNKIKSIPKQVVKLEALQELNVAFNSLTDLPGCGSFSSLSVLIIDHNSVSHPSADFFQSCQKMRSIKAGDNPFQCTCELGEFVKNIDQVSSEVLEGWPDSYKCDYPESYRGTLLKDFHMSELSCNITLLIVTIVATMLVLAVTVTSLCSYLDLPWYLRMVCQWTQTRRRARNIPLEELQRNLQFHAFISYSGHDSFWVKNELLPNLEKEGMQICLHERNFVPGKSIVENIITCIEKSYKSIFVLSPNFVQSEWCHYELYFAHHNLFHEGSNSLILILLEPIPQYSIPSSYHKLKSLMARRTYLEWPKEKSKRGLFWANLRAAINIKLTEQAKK

SMILES | pEC50 (Toll-like receptor 2 [1]) | pEC50 (Toll-like receptor 2 [3]) | pEC50 (Toll-like receptor 2 [4]) | further results
CNc1ccc([N+](=O)[O-])cc1-n1cnc(-c2ccc([N+](=O)[O-])cc2)c1 |  |  |  | pEC50 (Toll-like receptor 1/2): 5.60
CCCCCCCCCCCCCCCC(=O)N[C@@H](SC[C@@H](COC(=O)CCCCCCCCCCCCCCC)OC(=O)CCCCCCCCCCCCCCC)C(=O)N[C@@H](CO)C(=O)N[C@@H](CCCCN)C(=O)N[C@@H](CCCCN)C(=O)N[C@@H](CCCCN)C(=O)N[C@@H](CCCCN)C(=O)N[C@@H](CO)C(=O)N[C@@H](CC(C)C)C(=O)N[C@@H](CC(C)C)C(=O)N[C@@H](CCSC)C(=O)N[C@@H](Cc1c[nH]c2ccccc12)C(=O)N[C@H](C(=O)N[C@H](C(=O)N[C@@H](CCC(N)=O)C(=O)N[C@H](C(=O)O)C(C)C)[C@@H](C)O)[C@@H](C)CC | 4.64 |  |  | 
CCCCCCCCCCCCCCCC(=O)OCC[C@H](CS[C@H](N)C(=O)N[C@@H](CO)C(=O)N[C@@H](CCCCN)C(=O)N[C@@H](CCCCN)C(=O)N[C@@H](CCCCN)C(=O)N[C@@H](CCCCN)C(=O)N[C@@H](CO)C(=O)N[C@@H](CC(C)C)C(=O)N[C@@H](CC(C)C)C(=O)N[C@@H](CCSC)C(=O)N[C@@H](Cc1c[nH]c2ccccc12)C(=O)N[C@H](C(=O)N[C@H](C(=O)N[C@@H](CCC(N)=O)C(=O)N[C@H](C(=O)O)C(C)C)[C@@H](C)O)[C@@H](C)CC)OC(=O)CCCCCCCCCCCCCCC | 6.22 |  |  | 
CCCCCCCCCCCCCCCC(=O)OCC(CSC[C@@H](NC(=O)Cc1ccccc1)C(=O)N[C@@H](CO)C(=O)N[C@@H](CCCCN)C(=O)N[C@@H](CCCCN)C(=O)N[C@@H](CCCCN)C(=O)N[C@@H](CCCCN)C(=O)O)OC(=O)CCCCCCCCCCCCCCC (stereo partly drawn) |  |  |  | Activity ([5]; filed as agonist): > 100%
CCCCCC(=O)OCC(CSC[C@@H](NC(=O)Cc1ccccc1)C(=O)N[C@@H](CO)C(=O)N[C@@H](CCCCN)C(=O)N[C@@H](CCCCN)C(=O)N[C@@H](CCCCN)C(=O)N[C@@H](CCCCN)C(=O)O)OC(=O)CCCCC (stereo partly drawn) |  |  |  | Activity [5]: 0%
CCCCCCCCCCCCCCCC(=O)OCCCC[C@H](CS[C@H](N)C(=O)N[C@@H](CO)C(=O)N[C@@H](CCCCN)C(=O)N[C@@H](CCCCN)C(=O)N[C@@H](CCCCN)C(=O)N[C@@H](CCCCN)C(=O)N[C@@H](CO)C(=O)N[C@@H](CC(C)C)C(=O)N[C@@H](CC(C)C)C(=O)N[C@@H](CCSC)C(=O)N[C@@H](Cc1c[nH]c2ccccc12)C(=O)N[C@H](C(=O)N[C@H](C(=O)N[C@@H](CCC(N)=O)C(=O)N[C@H](C(=O)O)C(C)C)[C@@H](C)O)[C@@H](C)CC)OC(=O)CCCCCCCCCCCCCCC | 6.52 |  |  | 
CCCCCCCC(=O)OCC(CSC[C@@H](NC(=O)CCCCC)C(=O)N[C@@H](CO)C(=O)N[C@@H](CCCCN)C(=O)N[C@@H](CCCCN)C(=O)N[C@@H](CCCCN)C(=O)N[C@@H](CCCCN)C(=O)O)OC(=O)CCCCCCC (stereo partly drawn) |  |  |  | Activity [5]: 11%
CCCCCCCCCCCCCCCC(=O)OCCSC[C@H](NC(=O)COCC(=O)NCCCOCCOCCOCCCNc1ccc(C2=C(/C=C/C3=[N+](CC)c4ccccc4C3(C)C)CCC/C2=C\C=C2\N(CCC)c3ccccc3C2(C)C)cc1)C(=O)NCC(=O)N[C@H](CO)C(=O)COCC(=O)NCCCOCCOCCOCCCN |  |  |  | pIC50 (Toll-like receptor 2 [1]): 6.44; pKi (Toll-like receptor 2 [2]): 7.80

Now from value to compound, other results behind:

pEC50 (Toll-like receptor 2 [1]) | pEC50 (Toll-like receptor 2 [3]) | pEC50 (Toll-like receptor 2 [4]) | SMILES | further results
7.70 |  |  | CCCCCCCCCCCCCCCC(=O)OC[C@H](CSC[C@H](NC(=O)COCC(=O)NCCCOCCOCCOCCCNC(C)=O)C(=O)NCC(=O)N[C@H](CO)C(=O)COCC(=O)NCCCOCCOCCOCCCN)OC(=O)CCCCCCCCCCCCCCC | pKi (Toll-like receptor 2 [2]): 7.04
 | 6.08 | 6.08 | CCCCCCCCCCNC(=O)OC[C@H](CSC[C@@H](NC(=O)CCCCC)C(=O)NCCOCCOCCOCCP(=O)(O)O)OC(=O)NCCCCCCCCCC | 
 | 5.52 | 5.52 | CCCCCCCC(=O)OC[C@H](CSC[C@@H](N)C(=O)NCCOCCOCCOCCP(=O)(O)O)OC(=O)CCCCCCC | 
 | 6.09 | 6.09 | CCCCCCCCCCNC(=O)OC[C@H](CSC[C@@H](N)C(=O)NCCOCCOCCOCCP(=O)(O)O)OC(=O)NCCCCCCCCCC | 
6.17 |  |  | CCCCCCCCCCCCCCCC(=O)OCCSC[C@H](NC(=O)COCC(=O)NCCCOCCOCCOCCCNC)C(=O)NCC(=O)N[C@H](CO)C(=O)COCC(=O)NCCCOCCOCCOCCCN | pKi (Toll-like receptor 2 [2]): 7.66
 | 6.26 | 6.26 | CCCCCCCCCCCCOC[C@H](CSC[C@@H](N)C(=O)NCCOCCOCCOCCP(=O)(O)O)OCCCCCCCCCCCC | 
 | 5.46 | 5.46 | CCCCCCCCCCCCCCCCOC[C@H](CSC[C@@H](N)C(=O)NCCOCCOCCOCCP(=O)(O)O)OCCCCCCCCCCCCCCCC | 
